For 27 compounds, Kb results are on record in patent US20090036422A1 (priority 2007, published 2009).

Structures can show the parent of a compound that is named as a salt.

The target in this assay is T1, human orexin-2 (hOX2) receptor (Homo sapiens, UniProt O43614).
T1 construct: expressed in transfected cells
T1 sequence (O43614 1-444): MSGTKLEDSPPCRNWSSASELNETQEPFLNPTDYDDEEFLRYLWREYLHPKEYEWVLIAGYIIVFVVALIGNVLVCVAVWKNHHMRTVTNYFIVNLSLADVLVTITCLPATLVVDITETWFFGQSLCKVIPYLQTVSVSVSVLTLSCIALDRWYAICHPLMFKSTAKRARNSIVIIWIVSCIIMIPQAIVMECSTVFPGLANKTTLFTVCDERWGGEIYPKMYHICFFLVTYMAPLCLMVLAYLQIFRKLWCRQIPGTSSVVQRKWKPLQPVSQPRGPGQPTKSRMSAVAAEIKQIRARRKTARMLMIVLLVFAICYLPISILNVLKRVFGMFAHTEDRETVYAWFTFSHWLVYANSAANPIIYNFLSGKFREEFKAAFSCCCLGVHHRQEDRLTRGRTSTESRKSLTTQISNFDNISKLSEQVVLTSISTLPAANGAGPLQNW
In words: Intracellular Ca2+ mobilization assay (FLIPR), CHO(dHFr-) cells expressing hOX2, orexin-A at EC80 as agonist. Type of assay: cell-based. The following applies: Kb=IC50/(1+[A]/EC50); CHO(dHFr-)-OX2R cells, antagonist applied 25 min before orexin-A EC80. The method, then: Intracellular Ca^2+ Mobilization Assay
The Chinese Hamster Ovary (dHFr−) mutant cell line stably expressing human orexin-1 (hOX1) or human orexin-2 (hOX2) receptors were maintained in Dulbecco's Modified Eagle Medium (1×) with GlutaMax™ 1, 4500 mg/L D-Glucose and Sodium Pyruvate (Catalog No. 31966-021, Invitrogen, Carlsbad, Calif.), 5% dialyzed fetal calf serum (Catalog No. 26400-044), 100 μg/ml penicillin and 100 μg/ml streptomycin. The cells were seeded at 5×10^4 cells/well in the poly-D-lysine treated, 96-well, black/clear-bottomed plates (Catalog No. BD356640, BD Biosciences, Palo Alto, Calif.). 24 h later, the cells were loaded for 1 h at 37° C. with 4 μM Flou-4 acetoxymethyl ester (Catalog No. F-14202, Molecular Probes, Eugene, Oreg.) in FLIPR buffer (1×HBSS, 20 mM HEPES, 2.5 mM Probenecid). Hanks' Balanced Salt Solution (HBSS) (10×) (catalog No. 14065-049) and HEPES (1M) (catalog No. 15630-056) were purchased from Invitrogen, Carlsbad, Calif. Probenecid (250 mM) (catalog No. P8761) was from Sigma, Buchs, Switzerland. The cells were washed five times with FLIPR buffer to remove excess dye and intracellular calcium mobilization, [Ca^2+]i were measured using a Fluorometric Imaging Plate Reader (FLIPR-96, Molecular Devices, Menlo Park, Calif.) as described previously (Malherbe et al., Mol. Pharmacol., 64, 823-832, 2003). Orexin A (catalog No. 1455, Toris Cookson Ltd, Bristol, UK) was used as agonist. Orexin A (50 mM stock solution in DMSO) was diluted in FLIPR buffer +0.1% BSA. The EC50 and EC80 values of orexin-A were measured daily from standard agonist concentration-response curves in CHO(dHFr−) —OX1R and —OX2R cell lines. All compounds were dissolved in 100% DMSO. Inhibition curves were determined by addition of 11 concentrations (0.0001-10 μM) of inhibitory compounds and using EC80 value of orexin-A as agonist (a concentration which gave 80% of max agonist response, determined daily). The antagonists were applied 25 min (incubation at 37° C.) before the application of the agonist. Responses were measured as peak increase in fluorescence minus basal, normalized to the maximal stimulatory effect induced by EC80 value of orexin-A or orexin-B. Inhibition curves were fitted according to the Hill equation: y=100/(1+(x/IC50)^nH), where nH=slope factor using Excel-fit 4 software (Microsoft).
Kb values were calculated according to the following equation Kb=IC50/(1+[A]/EC50) where A is the concentration of agonist added which is very close to agonist EC80 value, and IC50 and EC50 values were derived from the antagonist inhibition and orexin-A or B agonist curves, respectively.
Usually Kb stands for the affinity of an antagonist, worked out from how it opposes an agonist. Higher therefore signals lower antagonist affinity. On to `COc1ccccc1C(N)C(=O)N(CCc1ccc(C(F)(F)F)cc1)c1ccc2c(c1)OC(F)(F)C(F)(F)O2` (stereo not drawn) [Example 44, 2-Amino-2-(2-methoxy-phenyl)-N-(2,2,3,3-tetrafluoro-2,3-dihydro-benzo[1,4]dioxin-6-yl)-N-[2-(4-trifluoromethyl-phenyl)-ethyl]-acetamide], for which the Kb amounted to 0.0069 µM. This lies in the single-digit nanomolar range. To `COc1ccc(N(CCc2ccc(C(F)(F)F)cc2)C(=O)C(N)c2ccccc2)cc1OC` (stereo not drawn) [Example 45, 2-Amino-N-(3,4-dimethoxy-phenyl)-2-phenyl-N-[2-(4-trifluoromethyl-phenyl)-ethyl]-acetamide] belongs 0.0018 µM; to `CNC(C(=O)N(CCc1ccc(C(F)(F)F)cc1)c1ccc(OC)c(OC)c1)c1ccccc1` (stereo not drawn) [Example 53, N-(3,4-Dimethoxy-phenyl)-2-methylamino-2-phenyl-N-[2-(4-trifluoromethyl-phenyl)-ethyl]-acetamide], 0.0305 µM.

Turning to `NC(C(=O)N(CCc1ccc(C(F)(F)F)cc1)c1ccc2c(c1)OCO2)c1ccccc1` (stereo not drawn) [Example 58, 2-Amino-N-benzo[1,3]dioxol-5-yl-2-phenyl-N-[2-(4-trifluoromethyl-phenyl)-ethyl]-acetamide], the Kb amounted to 0.0275 µM. As for `COc1ccc(C)c(N(CCc2ccc(C(F)(F)F)cc2)C(=O)C(N)c2ccccc2)c1` (stereo not drawn) [Example 59, 2-Amino-N-(5-methoxy-2-methyl-phenyl)-2-phenyl-N-[2-(4-trifluoromethyl-phenyl)-ethyl]-acetamide], the antagonist equilibrium constant (Kb) is 0.0143 µM.

In turn, `COc1cccc(N(CCc2ccc(C(F)(F)F)cc2)C(=O)C(N)c2ccccc2)c1` (stereo not drawn) [Example 60, 2-Amino-N-(3-methoxy-phenyl)-2-phenyl-N-[2-(4-trifluoromethyl-phenyl)-ethyl]-acetamide] showed a Kb of 0.0231 µM. `COc1ccc(N(CCc2ccc(C(F)(F)F)cc2)C(=O)C(N)c2ccc(F)cc2)cc1OC` (stereo not drawn) [Example 61, 2-Amino-N-(3,4-dimethoxy-phenyl)-2-(4-fluoro-phenyl)-N-[2-(4-trifluoromethyl-phenyl)-ethyl]-acetamide] displayed a Kb of 0.0025 µM. This Kb is about 9.2-fold lower than that of the compound before. To `COc1ccc(N(CCc2ccc(C(F)(F)F)cc2)C(=O)C(N)c2ccc(Cl)cc2)cc1OC` (stereo not drawn) [Example 62] belongs 0.0751 µM. For the compound `COc1ccc(N(CCc2ccc(C(F)(F)F)cc2)C(=O)C(N)c2cccc(Cl)c2)cc1OC` (stereo not drawn) [Example 63, 2-Amino-2-(3-chloro-phenyl)-N-(3,4-dimethoxy-phenyl)-N-[2-(4-trifluoromethyl-phenyl)-ethyl]-acetamide], the Kb amounted to 0.0664 µM. In turn, `COc1ccc(N(CCc2ccc(C(F)(F)F)cc2)C(=O)C(N)c2ccccc2)cc1F` (stereo not drawn) [Example 64, 2-Amino-N-(3-fluoro-4-methoxy-phenyl)-2-phenyl-N-[2-(4-trifluoromethyl-phenyl)-ethyl]-acetamide] had an antagonist dissociation constant (Kb) of 0.0383 µM. `COc1cc(N(CCc2ccc(C(F)(F)F)cc2)C(=O)C(N)c2ccccc2)ccc1Cl` (stereo not drawn) [Example 65, 2-Amino-N-(4-chloro-3-methoxy-phenyl)-2-phenyl-N-[2-(4-trifluoromethyl-phenyl)-ethyl]-acetamide] yielded a Kb of 0.0285 µM. Then `COc1ccc(N(CCc2ccc(C(F)(F)F)cc2)C(=O)C(N)c2ccccc2)cc1Cl` (stereo not drawn) [Example 66, 2-Amino-N-(3-chloro-4-methoxy-phenyl)-2-phenyl-N-[2-(4-trifluoromethyl-phenyl)-ethyl]-acetamide], with 0.013 µM. `CCOc1ccc(N(CCc2ccc(C(F)(F)F)cc2)C(=O)C(N)c2ccccc2)cc1OCC` (stereo not drawn) [Example 68, 2-Amino-N-(3,4-diethoxy-phenyl)-2-phenyl-N-[2-(4-trifluoromethyl-phenyl)-ethyl]-acetamide] returned an antagonist dissociation constant (Kb) of 0.0117 µM. To `Cc1ccc(N(CCc2ccc(C(F)(F)F)cc2)C(=O)C(N)c2ccccc2)cc1` (stereo not drawn) [Example 69, 2-Amino-2-phenyl-N-p-tolyl-N-[2-(4-trifluoromethyl-phenyl)-ethyl]-acetamide] belongs 0.0828 µM. To `Cc1cccc(N(CCc2ccc(C(F)(F)F)cc2)C(=O)C(N)c2ccccc2)c1` (stereo not drawn) [Example 70, 2-Amino-2-phenyl-N-m-tolyl-N-[2-(4-trifluoromethyl-phenyl)-ethyl]-acetamide] belongs 0.0579 µM; to `COc1ccc(N(CCc2ccc(C(F)(F)F)cc2)C(=O)[C@@H](NC2COC2)c2ccccc2)cc1OC` [Example 72, (S)—N-(3,4-Dimethoxy-phenyl)-2-(oxetan-3-ylamino)-2-phenyl-N-[2-(4-trifluoromethyl-phenyl)-ethyl]-acetamide], 0.0023 µM.

In turn, `COc1ccc(N(CCc2ccc(C(F)(F)F)cc2)C(=O)C(N)c2ccccc2)cc1` (stereo not drawn) [Example 75, 2-Amino-N-(4-methoxy-phenyl)-2-phenyl-N-[2-(4-trifluoromethyl-phenyl)-ethyl]-acetamide] registered an antagonist equilibrium constant (Kb) of 0.0523 µM.

Compound `COc1ccc(CCN(C(=O)C(N)c2ccccc2)c2ccc(OC(F)(F)F)cc2)cc1OC` (stereo not drawn) [Example 78, 2-Amino-N-[2-(3,4-dimethoxy-phenyl)-ethyl]-2-phenyl-N-(4-trifluoromethoxy-phenyl)-acetamide] showed an antagonist equilibrium constant (Kb) of 0.0444 µM.

The compound `Cc1cc(N(CCc2ccc(C(F)(F)F)cc2)C(=O)C(N)c2ccccc2)ccc1F` (stereo not drawn) [Example 83, 2-Amino-N-(4-fluoro-3-methyl-phenyl)-2-phenyl-N-[2-(4-trifluoromethyl-phenyl)-ethyl]-acetamide] gave an antagonist dissociation constant (Kb) of 0.0698 µM. On to `Cc1ccc(N(CCc2ccc(C(F)(F)F)cc2)C(=O)C(N)c2ccccc2)cc1C` (stereo not drawn) [Example 84, 2-Amino-N-(3,4-dimethyl-phenyl)-2-phenyl-N-[2-(4-trifluoromethyl-phenyl)-ethyl]-acetamide], for which the antagonist equilibrium constant (Kb) amounted to 0.0666 µM. Turning to `COc1ccc(N(CCc2ccc(C(F)(F)F)cc2)C(=O)C(N)c2cccc(F)c2)cc1OC` (stereo not drawn) [Example 85, 2-Amino-N-(3,4-dimethoxy-phenyl)-2-(3-fluoro-phenyl)-N-[2-(4-trifluoromethyl-phenyl)-ethyl]-acetamide], the antagonist dissociation constant (Kb) worked out at 0.0074 µM. The compound `Cc1ccc(CCN(C(=O)C(N)c2ccccc2)c2ccc(F)c(C)c2)cc1` (stereo not drawn) [Example 88, 2-Amino-N-(4-fluoro-3-methyl-phenyl)-2-phenyl-N-(2-p-tolyl-ethyl)-acetamide] registered a Kb of 0.0819 µM. Against the preceding compound, the Kb is about 11-fold higher. To `Cc1ccc(CCN(C(=O)C(N)c2ccccc2)c2ccc(C)c(C)c2)cc1` (stereo not drawn) [Example 89, 2-Amino-N-(3,4-dimethyl-phenyl)-2-phenyl-N-(2-p-tolyl-ethyl)-acetamide] belongs 0.0241 µM; to `Cc1ccc(N(CCc2ccc(Cl)cc2)C(=O)C(N)c2ccccc2)cc1C` (stereo not drawn) [Example 93, 2-Amino-N-[2-(4-chloro-phenyl)-ethyl]-N-(3,4-dimethyl-phenyl)-2-phenyl-acetamide], 0.0888 µM; to `NC(C(=O)N(CCc1ccc(C(F)(F)F)cc1)c1cccc(C2(O)COC2)c1)c1ccccc1` (stereo not drawn) [Example 95, 2-Amino-N-[3-(3-hydroxy-oxetan-3-yl)-phenyl]-2-phenyl-N-[2-(4-trifluoromethyl-phenyl)-ethyl]-acetamide], 0.0834 µM. For `CN[C@H](C(=O)N(CCc1ccc(C(F)(F)F)cc1)c1ccc(OC)c(OC)c1)c1ccccc1OC` [Example 101, (S)—N-(3,4-Dimethoxy-phenyl)-2-(2-methoxy-phenyl)-2-methylamino-N-[2-(4-trifluoromethyl-phenyl)-ethyl]-acetamide hydrochloride], the Kb is 0.0133 µM. To `COc1ccc(N(CCc2ccc(C(F)(F)F)cc2)C(=O)[C@@H](N)c2ccccc2OC)cc1OC` [Example 103, (S)-2-Amino-N-(3,4-dimethoxy-phenyl)-2-(2-methoxy-phenyl)-N-[2-(4-trifluoromethyl-phenyl)-ethyl]-acetamide hydrochloride] belongs 0.0053 µM.
